Experimental data as given in ChEMBL document CHEMBL1144136, “Anti-HIV-1 protease triterpenoid saponins from the seeds of Aesculus chinensis” (J Nat Prod, 1999).

Assays:
[1] = target: Protease (Human immunodeficiency virus 1) (UniProt Q9YQ12); assay: Inhibition of HIV1 protease at 100 uM
Protease = Protease (Human immunodeficiency virus 1, UniProt Q9YQ12); assay: Inhibition of HIV1 protease
Chain of Protease (Q9YQ12 whole entry): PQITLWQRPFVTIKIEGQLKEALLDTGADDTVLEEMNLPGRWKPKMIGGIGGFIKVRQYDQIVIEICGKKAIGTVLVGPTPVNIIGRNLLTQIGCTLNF

Chain of Protease (Human immunodeficiency virus 1) (Q9YQ12 as listed by the source): as the sequence (Q9YQ12 whole entry) above

Row | SMILES | inhibition [1] | IC50 (Protease)
1 | C/C=C(\C)C(=O)O[C@H]1[C@H](O)C(C)(C)C[C@H]2C3=CC[C@@H]4[C@@]5(C)CC[C@H](O[C@@H]6O[C@H](C(=O)O)[C@@H](O[C@@H]7O[C@H](CO)[C@@H](O)[C@H](O)[C@H]7O)[C@H](O)[C@H]6O[C@@H]6O[C@H](CO)[C@@H](O)[C@H](O)[C@H]6O)[C@](C)(CO)[C@@H]5CC[C@@]4(C)[C@]3(C)C[C@@H](O)[C@]21COC(C)=O | 35.2% | –
2 | C/C=C(\C)C(=O)O[C@H]1[C@H](O)[C@]2(COC(C)=O)[C@H](O)C[C@]3(C)C(=CC[C@@H]4[C@@]5(C)CC[C@H](O[C@@H]6O[C@H](C(=O)O)[C@@H](O[C@@H]7O[C@H](CO)[C@@H](O)[C@H](O)[C@H]7O)[C@H](O)[C@H]6O[C@@H]6O[C@H](CO)[C@@H](O)[C@H](O)[C@H]6O)[C@](C)(CO)[C@@H]5CC[C@]43C)[C@@H]2CC1(C)C | 39% | –
3 | C/C=C(\C)C(=O)OC[C@@]12[C@H](O)C[C@]3(C)C(=CC[C@@H]4[C@@]5(C)CC[C@H](O[C@@H]6O[C@H](C(=O)O)[C@@H](O[C@@H]7O[C@H](CO)[C@@H](O)[C@H](O)[C@H]7O)[C@H](O)[C@H]6O[C@@H]6O[C@H](CO)[C@@H](O)[C@H](O)[C@H]6O)[C@](C)(CO)[C@@H]5CC[C@]43C)[C@@H]1CC(C)(C)[C@@H](O)[C@@H]2O | 15.9% | –
4 | C/C=C(/C)C(=O)O[C@H]1[C@H](O)[C@]2(COC(C)=O)[C@H](O)C[C@]3(C)C(=CC[C@@H]4[C@@]5(C)CC[C@H](O[C@@H]6O[C@H](C(=O)O)[C@@H](O[C@@H]7O[C@H](CO)[C@@H](O)[C@H](O)[C@H]7O)[C@H](O)[C@H]6O[C@@H]6O[C@H](CO)[C@@H](O)[C@H](O)[C@H]6O)[C@](C)(CO)[C@@H]5CC[C@]43C)[C@@H]2CC1(C)C | 14.7% | –
5 | C/C=C(/C)C(=O)O[C@H]1[C@H](OC(C)=O)[C@]2(CO)[C@H](O)C[C@]3(C)C(=CC[C@@H]4[C@@]5(C)CC[C@H](O[C@@H]6O[C@H](C(=O)O)[C@@H](O[C@@H]7O[C@H](CO)[C@@H](O)[C@H](O)[C@H]7O)[C@H](O)[C@H]6O[C@@H]6O[C@H](CO)[C@@H](O)[C@H](O)[C@H]6O)[C@](C)(CO)[C@@H]5CC[C@]43C)[C@@H]2CC1(C)C [ESCIN IB] | – | 50 µM
6 | C/C=C(\C)C(=O)O[C@H]1[C@H](OC(C)=O)[C@]2(CO)[C@H](O)C[C@]3(C)C(=CC[C@@H]4[C@@]5(C)CC[C@H](O[C@@H]6O[C@H](C(=O)O)[C@@H](O[C@@H]7O[C@H](CO)[C@@H](O)[C@H](O)[C@H]7O)[C@H](O)[C@H]6O[C@@H]6O[C@H](CO)[C@@H](O)[C@H](O)[C@H]6O)[C@](C)(CO)[C@@H]5CC[C@]43C)[C@@H]2CC1(C)C [ESCIN IA] | – | 35 µM
7 | C/C=C(/C)C(=O)OC[C@@]12[C@H](O)C[C@]3(C)C(=CC[C@@H]4[C@@]5(C)CC[C@H](O[C@@H]6O[C@H](C(=O)O)[C@@H](O[C@@H]7O[C@H](CO)[C@@H](O)[C@H](O)[C@H]7O)[C@H](O)[C@H]6O[C@@H]6O[C@H](CO)[C@@H](O)[C@H](O)[C@H]6O)[C@](C)(CO)[C@@H]5CC[C@]43C)[C@@H]1CC(C)(C)[C@@H](O)[C@@H]2O | 12.5% | –
8 | C/C=C(/C)C(=O)O[C@H]1[C@H](O)C(C)(C)C[C@H]2C3=CC[C@@H]4[C@@]5(C)CC[C@H](O[C@@H]6O[C@H](C(=O)O)[C@@H](O[C@@H]7O[C@H](CO)[C@@H](O)[C@H](O)[C@H]7O)[C@H](O)[C@H]6O[C@@H]6O[C@H](CO)[C@@H](O)[C@H](O)[C@H]6O)[C@](C)(CO)[C@@H]5CC[C@@]4(C)[C@]3(C)C[C@@H](O)[C@]21COC(C)=O | 34% | –
